Laboratory results: ChEMBL document CHEMBL3044568, “Synthesis, analgesic, anti-inflammatory, and in vitro antimicrobial activities of some novel quinazolin-4(3H)-one derivatives” (Med Chem Res, 2013)
Converted amounts (≈) assume the structure as drawn.

Key:
[1] = test system: Aspergillus fumigatus; experiment: Antifungal activity against Aspergillus fumigatus ATCC 46645 assessed as growth inhibition after 48 hr by agar streak dilution method; type: functional; conditions: ATCC 46645, 48 h
[2] = test system: Aspergillus niger; experiment: Antifungal activity against Aspergillus niger ATCC 9029 assessed as growth inhibition after 48 hr by agar streak dilution method; type: functional; conditions: ATCC 9029, 48 h
[3] = test system: Klebsiella pneumoniae; experiment: Antibacterial activity against Klebsiella pneumoniae ATCC 11298 assessed as growth inhibition after 24 hr by agar streak dilution method; type: functional; conditions: ATCC 11298, 24 h
[4] = test system: Pseudomonas aeruginosa; experiment: Antibacterial activity against Pseudomonas aeruginosa […] assessed as growth inhibition after 24 hr by agar streak dilution method; type: functional
[5] = test system: Rattus norvegicus; experiment: Anti-inflammatory activity in Rattus norvegicus Wistar (rat) assessed as protection against carrageenan-induced paw edema at 20 mg/kg, po measured at 1 hr by plethysmographic analysis (reference value: 6 +/- 0.63%); type: functional
[6] = test system: Rattus norvegicus; experiment: Anti-inflammatory activity in Rattus norvegicus Wistar (rat) assessed as protection against carrageenan-induced paw edema at 10 mg/kg, po measured at 1 hr by plethysmographic analysis (reference value: 6 +/- 0.63%); type: functional
[7] = test system: Rattus norvegicus; experiment: Anti-inflammatory activity in Rattus norvegicus Wistar (rat) assessed as protection against carrageenan-induced paw edema at 20 mg/kg, po measured at 30 min by plethysmographic analysis (reference value: 4 +/- 0.28%); type: functional
[8] = test system: Rattus norvegicus; experiment: Anti-inflammatory activity in Rattus norvegicus Wistar (rat) assessed as protection against carrageenan-induced paw edema at 10 mg/kg, po measured at 30 min by plethysmographic analysis (reference value: 4 +/- 0.28%); type: functional
[9] = test system: Escherichia coli; experiment: Antibacterial activity against Escherichia coli ATCC 25922 assessed as growth inhibition after 24 hr by agar streak dilution method; type: functional; conditions: ATCC 25922, 24 h
[10] = test system: Bacillus cereus; experiment: Antibacterial activity against Bacillus cereus ATCC 11778 assessed as growth inhibition after 24 hr by agar streak dilution method; type: functional; conditions: ATCC 11778, 24 h
[11] = test system: Micrococcus luteus; experiment: Antibacterial activity against Micrococcus luteus ATCC 4698 assessed as growth inhibition after 24 hr by agar streak dilution method; type: functional; conditions: ATCC 4698, 24 h
[12] = test system: Staphylococcus epidermidis; experiment: Antibacterial activity against Staphylococcus epidermidis ATCC 155 assessed as growth inhibition after 24 hr by agar streak dilution method; type: functional; conditions: ATCC 155, 24 h
[13] = test system: Staphylococcus aureus; experiment: Antibacterial activity against Staphylococcus aureus ATCC 9144 assessed as growth inhibition after 24 hr by agar streak dilution method; type: functional; conditions: ATCC 9144, 24 h
[14] = test system: Rattus norvegicus; experiment: Ulcerogenecity in Rattus norvegicus Wistar albino (rat) stomach assessed as ulcer index administered 20 mg/kg, ip qd for 3 days measured on day 4 relative to aspirin; type: ADME, organism-based; parameters: dose 20 mg/kg, route intraperitoneal; conditions: in vivo, 72 h
[15] = test system: Rattus norvegicus; experiment: Ulcerogenecity in Rattus norvegicus Wistar albino (rat) stomach assessed as ulcer index administered 20 mg/kg, ip qd for 3 days measured on day 4 relative to diclofenac; type: ADME, organism-based; parameters: dose 20 mg/kg, route intraperitoneal; conditions: in vivo, 72 h
[16] = test system: Rattus norvegicus; experiment: Ulcerogenecity in Rattus norvegicus Wistar albino (rat) stomach assessed as ulcer index administered 20 mg/kg, ip qd for 3 days measured on day 4 (reference value: 0.13 +/- 0.05 no unit); type: ADME, organism-based; parameters: dose 20 mg/kg, route intraperitoneal; conditions: in vivo, 72 h
[17] = test system: Rattus norvegicus; experiment: Anti-inflammatory activity in Rattus norvegicus Wistar (rat) assessed as protection against carrageenan-induced paw edema at 20 mg/kg, po measured at 3 hr by plethysmographic analysis (reference value: 4 +/- 0.75%); type: functional
[18] = test system: Rattus norvegicus; experiment: Anti-inflammatory activity in Rattus norvegicus Wistar (rat) assessed as protection against carrageenan-induced paw edema at 10 mg/kg, po measured at 3 hr by plethysmographic analysis (reference value: 4 +/- 0.75%); type: functional
[19] = test system: Rattus norvegicus; experiment: Anti-inflammatory activity in Rattus norvegicus Wistar (rat) assessed as protection against carrageenan-induced paw edema at 20 mg/kg, po measured at 2 hr by plethysmographic analysis (reference value: 5 +/- 0.41%); type: functional
[20] = test system: Rattus norvegicus; experiment: Anti-inflammatory activity in Rattus norvegicus Wistar (rat) assessed as protection against carrageenan-induced paw edema at 10 mg/kg, po measured at 2 hr by plethysmographic analysis (reference value: 5 +/- 0.41%); type: functional
[21] = test system: Mus musculus; experiment: Analgesic activity in Mus musculus […] albino (mouse) at 20 mg/kg, po measured at 3 hr by tail flick test (reference value: 3 +/- 0.41%)
[22] = test system: Mus musculus; experiment: Analgesic activity in Mus musculus […] albino (mouse) at 10 mg/kg, po measured at 3 hr by tail flick test (reference value: 3 +/- 0.41%)
[23] = test system: Mus musculus; experiment: Analgesic activity in Mus musculus […] albino (mouse) at 20 mg/kg, po measured at 2 hr by tail flick test (reference value: 6 +/- 0.84%)
[24] = test system: Mus musculus; experiment: Analgesic activity in Mus musculus […] albino (mouse) at 10 mg/kg, po measured at 2 hr by tail flick test (reference value: 6 +/- 0.84%)
[25] = test system: Mus musculus; experiment: Analgesic activity in Mus musculus […] albino (mouse) at 10 mg/kg, po measured at 1 hr by tail flick test (reference value: 5 +/- 0.49%)
[26] = test system: Mus musculus; experiment: Analgesic activity in Mus musculus […] albino (mouse) at 20 mg/kg, po measured at 1 hr by tail flick test (reference value: 5 +/- 0.49%)
[27] = test system: Mus musculus; experiment: Analgesic activity in Mus musculus […] albino (mouse) at 20 mg/kg, po measured at 30 min by tail flick test (reference value: 4 +/- 0.72%)
[28] = test system: Mus musculus; experiment: Analgesic activity in Mus musculus […] albino (mouse) at 10 mg/kg, po measured at 30 min by tail flick test (reference value: 4 +/- 0.72%)

SMILES | MIC [1] | MIC [2] | MIC [3] | MIC [4] | Activity [5] | Activity [6] | Activity [7] | Activity [8] | MIC [9] | MIC [10] | MIC [11] | MIC [12] | MIC [13] | Activity [17] | Activity [18] | Activity [19] | Activity [20] | Activity [21] | Activity [22] | Activity [23] | other results
Cc1nc2ccccc2c(=O)n1-c1ccc(NC(=O)CN/N=C/c2ccc(F)cc2)cc1 | 15.6 µg/mL (≈ 36.4 µM) | 31.2 µg/mL (≈ 72.8 µM) | 3.9 µg/mL (≈ 9.08 µM) | 7.81 µg/mL (≈ 18.2 µM) | 49% | 33% | 37% | 26% | 31.2 µg/mL (≈ 72.8 µM) | 7.81 µg/mL (≈ 18.2 µM) | 15.6 µg/mL (≈ 36.4 µM) | 7.81 µg/mL (≈ 18.2 µM) | 31.2 µg/mL (≈ 72.8 µM) | 36% | 29% | 52% | 36% | 35% | 31% | 58% | UI [14]: 31%; UI [15]: 34%; UI [16]: 0.64 no unit; Activity [24]: 42%; Activity [25]: 38%; Activity [26]: 54%; Activity [27]: 44%; Activity [28]: 32%
Cc1nc2ccccc2c(=O)n1-c1ccc(NC(=O)CN/N=C\c2c[nH]c3ccccc23)cc1 | 62.5 µg/mL (≈ 139 µM) | 31.2 µg/mL (≈ 69.4 µM) | 15.6 µg/mL (≈ 34.7 µM) | 15.6 µg/mL (≈ 34.7 µM) | 36% | 23% | 28% | 20% | 62.5 µg/mL (≈ 139 µM) | 31.2 µg/mL (≈ 69.4 µM) | 31.2 µg/mL (≈ 69.4 µM) | 31.2 µg/mL (≈ 69.4 µM) | 62.5 µg/mL (≈ 139 µM) | 32% | 21% | 41% | 29% | 20% | 18% | 41% | UI [14]: 31%; UI [15]: 34%; UI [16]: 0.72 no unit; Activity [24]: 29%; Activity [25]: 25%; Activity [26]: 35%; Activity [27]: 30%; Activity [28]: 19%
Cc1nc2ccccc2c(=O)n1-c1ccc(NC(=O)CN/N=C/c2ccc(Cl)cc2)cc1 | 7.81 µg/mL (≈ 17.5 µM) | 15.6 µg/mL (≈ 35 µM) | 7.81 µg/mL (≈ 17.5 µM) | 15.6 µg/mL (≈ 35 µM) | 52% | 37% | 43% | 31% | 31.2 µg/mL (≈ 70.1 µM) | 15.6 µg/mL (≈ 35 µM) | 7.81 µg/mL (≈ 17.5 µM) | 15.6 µg/mL (≈ 35 µM) | 31.2 µg/mL (≈ 70.1 µM) | 42% | 34% | 59% | 43% | 40% | 35% | 64% | UI [14]: 31%; UI [15]: 34%; UI [16]: 0.59 no unit; Activity [24]: 48%; Activity [25]: 45%; Activity [26]: 58%; Activity [27]: 50%; Activity [28]: 36%
Cc1nc2ccccc2c(=O)n1-c1ccc(NC(=O)CN/N=C/c2ccc(O)cc2)cc1 | 62.5 µg/mL (≈ 146 µM) | 125 µg/mL (≈ 292 µM) | 125 µg/mL (≈ 292 µM) | 125 µg/mL (≈ 292 µM) | 39% | 25% | 30% | 21% | 125 µg/mL (≈ 292 µM) | 125 µg/mL (≈ 292 µM) | 62.5 µg/mL (≈ 146 µM) | 125 µg/mL (≈ 292 µM) | 125 µg/mL (≈ 292 µM) | 29% | 22% | 43% | 28% | 26% | 20% | 47% | UI [14]: 31%; UI [15]: 34%; UI [16]: 0.82 no unit; Activity [24]: 34%; Activity [25]: 30%; Activity [26]: 43%; Activity [27]: 36%; Activity [28]: 23%
O=C([O-])Cc1ccccc1Nc1c(Cl)cccc1Cl.[Na+] [DICLOFENAC SODIUM] | – | – | – | – | 51% | 36% | 40% | 31% | – | – | – | – | – | 43% | 29% | 60% | 42% | 41% | 32% | 64% | Activity [24]: 49%; Activity [25]: 44%; Activity [26]: 55%; Activity [27]: 47%; Activity [28]: 34%
O=C(O)c1cn(C2CC2)c2cc(N3CCNCC3)c(F)cc2c1=O [CIPROFLOXACIN] | – | – | 3.9 µg/mL (≈ 11.8 µM) | 7.81 µg/mL (≈ 23.6 µM) | – | – | – | – | 15.6 µg/mL (≈ 47.1 µM) | 7.81 µg/mL (≈ 23.6 µM) | 7.81 µg/mL (≈ 23.6 µM) | 7.81 µg/mL (≈ 23.6 µM) | 15.6 µg/mL (≈ 47.1 µM) | – | – | – | – | – | – | – | –
CC(=O)N1CCN(c2ccc(OCC3COC(Cn4ccnc4)(c4ccc(Cl)cc4Cl)O3)cc2)CC1 (configuration not stated) [KETOCONAZOLE] | 7.81 µg/mL (≈ 14.7 µM) | 15.6 µg/mL (≈ 29.4 µM) | – | – | – | – | – | – | – | – | – | – | – | – | – | – | – | – | – | – | –
